The test system of assay [1] is SFRP1 and SFRP2 genes in MCF7 cells. Kind of assay: RT-PCR re-expression of silenced tumor suppressor genes in MCF7 cells. The format is cell-based, human. As to conditions: sirtuin inhibitors, data not shown. The method, then: (§1) Cell culture and retroviral infection. MDA-MB-231, MCF7, HCT116, SW480 RKO, and Phoenix cells (ATCC, Rockville, Md., United States) were cultured in Dulbecco's modified Eagle's medium supplemented with 10% fetal bovine serum and 1% penicillin/streptomycin (Invitrogen, Carlsbad, Calif., United States). Retroviral infection was performed using either single or multiple rounds of infection. Briefly, Phoenix cells were transfected with either pBabe, pBabe-SIRT1H363Y, pSUPERretro, pSUPERretro-SIRT1-RNAi-1-3 (NM_012238 positions 410, 589, and 1091; Oligo Engine, Seattle, Wash., United States) using Lipofectamine 2000 (Invitrogen). After 48 h of transfection, the medium containing retrovirus was collected, filtered, and supplemented with Polybrene prior to infection of target cells (MDA-MB-231, MCF7, or HCT116). Infected cells were either harvested 24-48 hours later or subjected to selection with 2-3 μg/ml puromycin for a week prior to harvest and analysis.
(§2) RNA and protein preparation and analysis. Total RNA was extracted (Invitrogen) according to the manufacturer's instructions and subjected to reverse transcription followed by both quantitative real-time and semi-quantitative polymerase chain reaction. For quantitative real-time analyses, the QuantiTect SYBR Green PCR kit (Qiagen, Valencia, Calif., United States) was used and the amplification conditions consisted of an initial 10-minutes denaturation step at 95° C., followed by 40 cycles of denaturation at 95° C. for 15 s and annealing and extension for 30 seconds and 60 seconds, respectively. A BioRad iCycler was used (BioRad, Hercules, Calif., United States), and for quantitation the comparative cycle threshold (Ct) method was used, normalizing the Ct values for the indicated gene to the Ct values of GAPDH relative to a control sample. For conventional PCR, at least two independent sets of intron-spanning primers were used for the analysis of multiple genes, such as CRBP1, (NM_002899), E-cadherin, (L34545), SFRP1, (BC036503), SFRP2, (BC008666), and Gata-4 (L34357). For Western blots, cells stably expressing RNAi constructs were harvested in 50 mM Tris-HCl, 1% NP-40, 0.25% sodium deoxycholate, 150 mM NaCl, 50 mM sodium fluoride, 1 mM dithiothreitol, 1 mM AEBSF, 1× Complete protease inhibitor cocktail (Roche, Basel, Switzerland). Protein concentrations were measured by BCA (Pierce Biotechnology, Rockford, Ill., United States). […] On the same blot, β-actin (Sigma, St. Louis, Mo., United States) was probed to ensure equal loading.

The test system of assay [2] is SFRP1, SFRP2, E-cadherin, CRBP1 genes in MDA-MB-231 cells. Kind of assay: RT-PCR re-expression of silenced tumor suppressor genes in MDA-MB-231 cells. The format is cell-based, human. As to the method:
The panels of FIG. 2 are as follows. […] MDA-MB-231 cells were treated with 15 mM NIA or 300 μM SPT for 21 hours, RNA was isolated, and RT-PCR was performed with intron-spanning primers specific for the indicated genes. Control samples in which no reverse transcriptase was added were analyzed separately, and all were negative for amplification of the indicated genes. […] MDA-MB-231 cells were treated with either 50 nM Aza (+), 100 μM SPT (+) or with both Aza and SPT (++), and 34 hours later, RT-PCR was performed for the indicated genes as described in FIG. 2(A). […] MDA-MB-231 cells were treated with either 0, 50, 100, or 120 μM SPT alone for 34 hours, or the treatment was followed by treatment with 300 nM TSA for 3 hours prior to RNA isolation and RT-PCR analysis. […] MDA-MB-231 cells were infected with low titers of virus for shRNA specific for SIRT1. Aza (100 nM) was added 24 hours prior to RNA isolation, and RT-PCR analysis was performed for the genes SFRP 1, SFRP2, and GAPDH as described in FIG. 2(A). […] As shown in the left panel, MDA-MB-231 cells were infected with a control (vec) or mutant SIRT1 virus (HY), and RT-PCR was performed as described in FIG. 2(A). MDA-MB-231 cells were infected with low titers of pBabe or pBabe-SIRT1H363Y retrovirus and subsequently treated with 100 nM Aza for 24 hours or with 300 nM TSA for 3 hours prior to harvest, and RT-PCR was performed.
as §1, §2

The subject of assay [3] is β-catenin-responsive TCF reporter (Wnt pathway) in RKO cells. Kind of assay: β-catenin-responsive TCF reporter assay. The assay is classed as cell-based, human. As to conditions: 700 μM SPT for 24 hours. As to the method: The panels of FIG. 6. […] Error bars indicate standard deviation from the average of three experiments. FIG. 6(B) provides the results obtained from experiments in which RKO cells were transfected with 500 ng of pGL3-OT, a TCF-LEF-responsive reporter, or pGL3-OF, a negative control with a mutated TCF-LEF binding site in combination with 10 ng of pRL-CMV vector. Twenty-four hours post-transfection, cells were treated with either vehicle (DMSO) control or with 700 μM SPT for 24 hours. Firefly luciferase activity was measured and normalized to the Renilla luciferase activities. The experiments shown in FIG. 6(C) were performed as described in FIG. 6(A), in which pooled populations of MDA-MB-231 cells stably expressing RNAi-2 or RNAi-3 were harvested, protein concentrations were determined, and Western blot analysis was performed. An antibody that specifically recognizes the unphosphorylated (active) form of β-catenin was used, and on the same blot, β-actin was probed to ensure equal loading. […]
Reporter assays were performed as described previously using the β-catenin-responsive TCF reporter and the cyclin D1 reporter. […] According to the manufacturer's instructions, Firefly luciferase activity was measured via a luminometer (BD Biosciences) and normalized to the Renilla luciferase activities by using the Dual Luciferase Reporter System (Promega, Madison, Wis., United States).
For orientation: In a reporter assay the amount or activity of a reporter protein is the signal.

Assay [4] concerns cyclin-D1 promoter reporter in RKO cells. Kind of assay: β-catenin-responsive cyclin-D1 promoter reporter assay. The assay is classed as cell-based, human. The note with it: SPT treatment, data not shown. As to the method: Reporter assays were performed as described previously using the β-catenin-responsive TCF reporter and the cyclin D1 reporter. Briefly, prior to transfection, RKO cells were plated in six-well tissue culture dishes and grown until they reached 80%-90% confluence. Cells were transfected with 500 ng of pGL3-OT, a TCF-LEF-responsive reporter, or pGL3-OF, a negative control with a mutated TCF-LEF binding site in combination with 10 ng of pRL-CMV vector. Twenty-four hours post-transfection, cells were treated with either vehicle (DMSO) control or with 700 μM SPT for 24 hours. According to the manufacturer's instructions, Firefly luciferase activity was measured via a luminometer (BD Biosciences) and normalized to the Renilla luciferase activities by using the Dual Luciferase Reporter System (Promega, Madison, Wis., United States).

For a further assay, the target named is T1, SIRT1 (Homo sapiens, UniProt Q96EB6).
T1 sequence (Q96EB6 1-747): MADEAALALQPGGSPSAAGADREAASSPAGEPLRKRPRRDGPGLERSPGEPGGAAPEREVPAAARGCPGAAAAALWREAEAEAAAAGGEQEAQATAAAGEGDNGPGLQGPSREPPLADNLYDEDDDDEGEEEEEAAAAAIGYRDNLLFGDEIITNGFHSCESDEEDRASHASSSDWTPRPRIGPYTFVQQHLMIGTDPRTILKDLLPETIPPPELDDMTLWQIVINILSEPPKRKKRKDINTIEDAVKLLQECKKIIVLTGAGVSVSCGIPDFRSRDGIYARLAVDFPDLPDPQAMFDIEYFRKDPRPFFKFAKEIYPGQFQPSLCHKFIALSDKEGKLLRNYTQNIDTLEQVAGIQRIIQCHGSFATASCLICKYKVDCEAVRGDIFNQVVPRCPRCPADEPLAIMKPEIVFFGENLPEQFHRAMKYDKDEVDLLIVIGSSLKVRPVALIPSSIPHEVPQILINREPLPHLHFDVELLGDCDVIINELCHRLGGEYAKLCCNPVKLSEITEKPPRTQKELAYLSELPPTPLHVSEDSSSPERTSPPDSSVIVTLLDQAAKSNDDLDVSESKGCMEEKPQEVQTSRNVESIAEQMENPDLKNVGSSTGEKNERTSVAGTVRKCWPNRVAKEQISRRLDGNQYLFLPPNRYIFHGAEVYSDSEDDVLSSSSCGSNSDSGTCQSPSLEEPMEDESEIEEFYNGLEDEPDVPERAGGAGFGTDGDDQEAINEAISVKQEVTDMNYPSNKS
Kind of assay: SIRT1 p53-382 IC50 assay. The assay is classed as biochemical.

Where only a bound is given, the exact number is not on record here.

`O=C1CCc2c(ccc3ccccc23)O1` [SPT, splitomicin, reference compound]: the “re-expression of epigenetically silenced, hypermethylated TSGs” value in assay [1] is reported as “could cause the re-expression”. For the same compound, in assay [2] (Aza (50 nM) or SPT (50 μM) alone), the “re-expression of the gene panel, single agent at low dose” value was “ineffective as single agents”. Further, the “re-expression of epigenetically silenced, hypermethylated TSGs incl. CRBP1” value in assay [2] (MDA-MB-231 cells, 15 mM NIA or 300 μM SPT for 21 hours) is recorded as “could cause the re-expression”. In addition, the “reduction in the activation of a β-catenin-responsive TCF reporter construct” value in assay [3] is 50%. The “reduction in the activation of a β-catenin-responsive cyclin-D1 promoter reporter construct” value in assay [4] is 50%.

As a reminder, the IC50 is the midpoint of a concentration-inhibition curve. Read a low IC50 as greater potency. The compound `O=C(NO)C1CCCc2c1[nH]c1ccc(Cl)cc21` (stereo not drawn) [Compound 7, 6-Chloro-2,3,4,9-tetrahydro-1H-carbazole-1-carboxylic acid hydroxyamide] came in with an IC50 against SIRT1 greater than 10 µM.

(Values after patent publication US20110104177A1, “HISTONE DEACETYLASE INHIBITORS, COMBINATION THERAPIES AND METHODS OF USE” (THE JOHNS HOPKINS UNIVERSITY, priority 2006, published 2011).)
